# Molecular target: Vascular endothelial growth factor receptor 2 (Homo sapiens, UniProt P35968)
# Test: Inhibition of human cytoplasmic VEGFR2 expressed in baculovirus after 15 mins by time resolved fluorescence assay
# Chain of Vascular endothelial growth factor receptor 2 (P35968 whole entry): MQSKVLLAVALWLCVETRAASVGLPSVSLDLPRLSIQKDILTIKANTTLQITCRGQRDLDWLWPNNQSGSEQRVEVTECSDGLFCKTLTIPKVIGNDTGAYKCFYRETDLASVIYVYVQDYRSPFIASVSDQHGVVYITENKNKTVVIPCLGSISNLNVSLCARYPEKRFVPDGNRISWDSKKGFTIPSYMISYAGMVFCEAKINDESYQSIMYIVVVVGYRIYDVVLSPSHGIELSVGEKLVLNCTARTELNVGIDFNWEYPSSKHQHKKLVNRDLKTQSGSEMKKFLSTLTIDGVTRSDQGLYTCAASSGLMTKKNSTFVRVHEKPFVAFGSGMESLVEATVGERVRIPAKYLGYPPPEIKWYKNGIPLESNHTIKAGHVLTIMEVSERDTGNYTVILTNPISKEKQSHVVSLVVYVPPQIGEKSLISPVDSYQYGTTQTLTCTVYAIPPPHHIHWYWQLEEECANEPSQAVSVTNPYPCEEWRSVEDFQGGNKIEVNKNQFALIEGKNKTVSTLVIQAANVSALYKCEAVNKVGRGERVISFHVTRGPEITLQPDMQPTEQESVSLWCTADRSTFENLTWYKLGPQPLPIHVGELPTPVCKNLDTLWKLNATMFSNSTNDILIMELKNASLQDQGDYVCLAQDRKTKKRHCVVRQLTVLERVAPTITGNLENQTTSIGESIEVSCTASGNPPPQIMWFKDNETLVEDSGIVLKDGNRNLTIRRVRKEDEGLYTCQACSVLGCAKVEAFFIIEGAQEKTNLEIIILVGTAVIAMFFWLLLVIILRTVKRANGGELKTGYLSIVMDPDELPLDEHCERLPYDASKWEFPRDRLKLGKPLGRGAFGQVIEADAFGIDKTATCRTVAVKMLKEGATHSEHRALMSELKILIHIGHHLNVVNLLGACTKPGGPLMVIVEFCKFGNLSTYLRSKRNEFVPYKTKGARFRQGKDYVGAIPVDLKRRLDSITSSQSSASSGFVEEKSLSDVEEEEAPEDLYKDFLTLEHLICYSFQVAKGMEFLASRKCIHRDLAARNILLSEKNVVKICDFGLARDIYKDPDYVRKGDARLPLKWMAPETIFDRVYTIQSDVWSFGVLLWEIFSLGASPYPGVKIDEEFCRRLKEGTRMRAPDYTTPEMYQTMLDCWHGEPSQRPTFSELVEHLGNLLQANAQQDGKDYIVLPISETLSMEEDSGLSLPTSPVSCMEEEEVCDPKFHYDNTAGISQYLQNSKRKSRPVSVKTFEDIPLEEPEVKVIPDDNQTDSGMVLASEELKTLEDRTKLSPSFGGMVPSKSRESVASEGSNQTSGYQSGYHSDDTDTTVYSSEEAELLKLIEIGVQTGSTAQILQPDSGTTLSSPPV
row,IC50,SMILES
1,> 300 nM,"C=c1nns/c1=c1\[nH][nH]c(=O)c1=Cc1c[nH]c2ccc(Cl)cc12 [4-((5-chloro-1H-indol-3-yl)methylene)-3-(4-methyl-1,2,3-thiadiazol-5-yl)-1H-pyrazol-5(4H)-one]"
2,> 300 nM,"C=c1nns/c1=c1\[nH][nH]c(=O)c1=Cc1cn(C)c2ccc(C#N)cc12 [1-methyl-3-((3-(4-methyl-1,2,3-thiadiazol-5-yl)-5-oxo-1H-pyrazol-4(5H)-ylidene)methyl)-1H-indole-5-carbonitrile]"

# Source: BindingDB's records for doi:10.1016/j.bmcl.2006.12.054 (Cephalon, 2007)
